Structures can show the parent of a compound that is named as a salt.

The target of the assay is T1, human 5-HT4(a) (Homo sapiens, UniProt Q13639).
T1 construct: host or cells: GeneBlAzer HTR4-CRE-bla CHO-K1 cells
The experiment in a line: Evaluation of agonistic activity in CHO-K1 cells expressing human 5-HT4(a) (GeneBlAzer HTR4-CRE-bla CHO-K1, beta-lactamase reporter). Type of assay: cell-based. The settings on record: CHO-K1 cells stably expressing human 5-HT4(a). In outline:
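GeneBlAzer HTR4-CRE-bla CHO-K1 cells, 10^4/well overnight, exposed 5 h to compounds at 8 concentrations in medium with 1% DMSO in the added solution. β-lactamase substrate 2 h in dark; 410 nm excitation, 465/535 nm emission ratio; EC50 by non-linear regression.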

T1 sequence (Q13639 1-387 isoform Q13639-2): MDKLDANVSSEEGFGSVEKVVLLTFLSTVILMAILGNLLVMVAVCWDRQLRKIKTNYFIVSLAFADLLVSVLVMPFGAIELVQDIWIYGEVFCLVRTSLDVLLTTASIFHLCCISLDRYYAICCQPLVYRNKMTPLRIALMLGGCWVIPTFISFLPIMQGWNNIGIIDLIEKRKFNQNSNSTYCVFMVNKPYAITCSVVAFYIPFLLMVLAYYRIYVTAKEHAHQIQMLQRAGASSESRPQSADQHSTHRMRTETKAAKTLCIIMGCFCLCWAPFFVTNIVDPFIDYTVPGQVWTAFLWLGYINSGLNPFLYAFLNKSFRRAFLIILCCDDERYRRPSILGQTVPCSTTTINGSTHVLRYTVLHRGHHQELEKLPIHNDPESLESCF

In the case of `CCCc1cc(N2CC[C@H](NC(C)=O)C2)nc(Nc2ccc(F)c(N)c2)n1` [Example 291], the EC50 turned out to be 7.4 pM.

Regarding `CCCc1cc(N2CC[C@H](NC(=O)CN(C)C)C2)nc(Nc2cccc(C#N)c2)n1` [Example 160], the EC50 came out at 121 pM.

In the case of `CCCc1cc(N2CC[C@H](NCc3ccc(OC)cc3)C2)nc(Nc2cccc(C#N)c2)n1` [Example 97, (S)-3-{4-[3-(4-methoxybenzylamino)pyrrolidin-1-yl]-6-propylpyrimidin-2-ylamino}benzonitrile], the EC50 was 46 pM.

Turning to `CCCCc1cc(N2CC[C@H](NCC)C2)nc(Nc2ccc(C)c([N+](=O)[O-])c2)n1` [Example 462], the EC50 was found to be 2.6 pM.

`CCCc1cc(N2CC[C@H](NC(C)=O)C2)nc(Nc2ccc(C)c(OC)c2)n1` [Example 279] registered a half-maximal effective concentration (EC50) of 78 pM.

As for `CCCCc1cc(N2CC[C@H](NCC)C2)nc(Nc2cccc(C#N)c2)n1` [Example 459], the EC50 worked out at 3.4 pM.

On to `CCCc1cc(N2CC[C@H](NCCCSC)C2)nc(Nc2cccc(C#N)c2)n1` [Example 117, (S)-3-(4-{3-[3-(methylthio)propylamino]pyrrolidin-1-yl}-6-propylpyrimidin-2-ylamino)benzonitrile], for which the EC50 was found to be 14 pM. This EC50 lies about 4.1-fold higher than the previous one.

`CCCc1cc(N2CC[C@H](NC)C2)nc(Nc2ccc(C)c(C#N)c2)n1` [Example 170] had an EC50 of 1.3 pM. Compared with the last compound, the EC50 is about 11-fold lower.

As to `CCCc1cc(N2CC[C@H](N)C2)nc(Nc2ccc(F)c(C#N)c2)n1` [Example 353, (S)-5-[4-(3-aminopyrrolidin-1-yl)-6-propylpyrimidin-2-ylamino]-2-fluorobenzonitrile dihydrochloride], the concentration giving a half-maximal response (EC50) was found to be 10 pM.

The compound `CCCc1cc(N2CCC[C@H]2C(=O)OC)nc(Nc2ccc3cc[nH]c3c2)n1` [Example 191] came in with an EC50 of 290 pM.

The compound `CCCc1cc(N2CC[C@H](NC(=O)CC)C2)nc(Nc2cccc(C#N)c2)n1` [Example 146, (S)-N-{1-[2-(3-cyanophenylamino)-6-propylpyrimidin-4-yl]pyrrolidin-3-yl}propionamide] displayed an EC50 of 84 pM. Compared with the last compound, the EC50 is about 3.5-fold lower.

As for `CCCc1cc(N2CCC[C@H]2C)nc(Nc2cccc(C#N)c2)n1` [Example 53, (R)-3-[4-(2-methylpyrrolidin-1-yl)-6-propylpyrimidin-2-ylamino]benzonitrile], the midpoint of the response, the EC50, lay at 98 pM.

As to `CCCc1cc(N2CCC(NCC3CC3)C2)nc(Nc2cccc(C#N)c2)n1` (centres unmarked) [Example 387, 3-{4-[3-(cyclopropylmethylamino)pyrrolidin-1-yl]-6-propylpyrimidin-2-ylamino}benzonitrile dihydrochloride], the midpoint of the response, the EC50, lay at 7 pM.

Consider `CCCc1cc(N2CCC[C@H]2C)nc(Nc2cccc(C(F)(F)F)c2)n1` [Example 316], for which the EC50 came out at 210 pM.

As to `CCCc1cc(N2CC[C@H](NCc3cccnc3)C2)nc(Nc2cccc(C#N)c2)n1` [Example 102, (S)-3-{4-propyl-6-[3-(pyridin-3-ylmethylamino)pyrrolidin-1-yl]pyrimidin-2-ylamino}benzonitrile], it took 390 pM to reach a half-maximal effect (EC50). This EC50 lies about 1.9-fold higher than the previous one.

For the compound `CCCc1cc(N2CC[C@H](NCCC(C)C)C2)nc(Nc2cccc(C#N)c2)n1` [Example 93, (S)-3-{4-[3-(isopentylamino)pyrrolidin-1-yl]-6-propylpyrimidin-2-ylamino}benzonitrile], a half-maximal response (EC50) required 10 pM. This EC50 is about 39-fold lower than that of the compound before.

With `CCCc1cc(N2CC[C@H](NCC3CC3)C2)nc(Nc2ccc(F)c(C#N)c2)n1` [Example 376, (S)-5-{4-[3-(cyclopropylmethylamino)pyrrolidin-1-yl]-6-propylpyrimidin-2-ylamino}-2-fluorobenzonitrile], it took 3.7 pM to reach a half-maximal effect (EC50).

`CCCc1cc(N2CC[C@H](NC(C)=O)C2)nc(Nc2ccc(F)c(C#N)c2)n1` [Example 251] had an EC50 of 10 pM.

Turning to `CCCc1cc(N2CC[C@H](NC(=O)CCCNC(=O)OC(C)(C)C)C2)nc(Nc2cccc(C#N)c2)n1` [Example 166], a half-maximal response (EC50) required 103 pM.

The compound `CCCc1cc(N2CC[C@H](NC(C)C(C)(C)O)C2)nc(Nc2cccc(C#N)c2)n1` (stereo partly drawn) [Example 131, (S)-3-{4-[3-(3-hydroxy-3-methylbutan-2-ylamino)pyrrolidin-1-yl]-6-propylpyrimidin-2-ylamino}benzonitrile] registered an EC50 of 91 pM.

Source of the values: patent publication US9890138B2, “Diaminopyrimidine derivatives and processes for the preparation thereof” (YUHAN CORPORATION, priority 2011, dated 2018).
